Assay results from patent US4965280A, “Antifungal carbinols” (E. I. Du Pont de Nemours and Company, priority 1989, dated 1990).
≈ marks a conversion by molar mass, not a printed value. Read-outs that look alike come from different tables or passages of the source.

Experiments:
[1] = test system: Candida albicans ATCC 11651; assay: In vivo systemic Candida infection in mice, primary assay; parameters: species or system Candida albicans; CF-1 female mice; conditions: 150 mg/kg per day; for responders at 150 mg/kg: Candida albicans, read-out: % Survival
How it was run: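 CF-1 female mice (20 g, 10 per group) were infected IV with 0.2 ml of 1×10^7/ml C. albicans ATCC 11651, then given test compound subcutaneously at 50 or 150 mg/kg/day at 1 and 6 h post-infection and once daily for three more days. Survival was followed for 21 days against infected untreated mice; ≥70% protection at 14 days was scored active.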

[2] = test system: Venturia inaequalis; assay: Example A apple scab; format: in vivo; conditions: read-out: disease control rating, Ex. A
How it was run: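 Test compounds were dissolved in acetone (6% of final volume) and suspended at 100 or 20 ppm in purified water containing 250 ppm of the surfactant TREM 014 (polyhydric alcohol esters). Apple seedlings were sprayed with this suspension to the point of run-off.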

[3] = test system: Cercosporidium personatum; assay: Example B Peanut Late Leafspot; format: in vivo; conditions: Nothopassalora personata, read-out: disease control rating, Ex. B
How it was run: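 Compounds were dissolved in acetone (6% of final volume) and suspended at 100 or 20 ppm in purified water containing 250 ppm TREM 014 surfactant (polyhydric alcohol esters). The suspension was sprayed to run-off on peanut seedlings.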

[4] = test system: Botrytis cinerea; assay: Example C bean grey mold; format: in vivo; conditions: for pest or weed control at 100 ppm / pest or weed control at 20 ppm: Botrytis cinerea, 24 h, read-out: disease control rating, Ex. C
How it was run: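 Test compounds were taken up in acetone (6% of final volume) and suspended at 100 or 20 ppm in purified water containing 250 ppm TREM 014 surfactant (polyhydric alcohol esters). Broad bean seedlings were sprayed with this suspension until run-off.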

[5] = test system: Erysiphe graminis f. sp. tritici; assay: Example D wheat powdery mildew; format: in vivo; conditions: Blumeria graminis, 144 h, read-out: disease control rating, Ex. D
How it was run: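 Compounds were dissolved in acetone (6% of final volume), then suspended at 100 or 20 ppm in purified water containing 250 ppm TREM 014 surfactant. Wheat seedlings were sprayed with this suspension to run-off.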

[6] = test system: Pyricularia oryzae; assay: whole plant or invertebrate; format: in vivo; conditions: for pest or weed control at 100 ppm / pest or weed control at 20 ppm: Pyricularia oryzae, 120 h; for pest or weed control at 100 ppm: read-out: disease control rating, Ex. E, 100 PPM; for pest or weed control at 20 ppm: read-out: disease control rating, Ex. E, 20 PPM
[7] = test system: Rhizoctonia solani; assay: Example F rice sheath blight; format: in vivo; conditions: for pest or weed control at 100 ppm / pest or weed control at 20 ppm: Rhizoctonia solani, 144 h, read-out: disease control rating, Ex. F
How it was run: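 Compounds, dissolved in acetone at 6% of final volume, were suspended at 100 or 20 ppm in purified water with 250 ppm polyhydric alcohol ester surfactant (TREM 014). Rice seedlings were sprayed with this suspension to run-off.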

[8] = test system: Puccinia recondita; assay: Example G wheat leaf rust; format: in vivo; conditions: read-out: disease control rating, Ex. G
[9] = test system: Phytophthora infestans; assay: whole plant or invertebrate; format: in vivo; conditions: for pest or weed control at 100 ppm: Phytophthora infestans, in Solanum lycopersicum, read-out: disease control rating, Ex. H, 100 PPM
[10] = test system: Plasmorpara viticola; assay: Example I grape downy mildew; format: in vivo; conditions: read-out: disease control rating, Ex. I
How it was run: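 Grape seedlings sprayed to run-off; test suspension 100 or 20 ppm compound, acetone 6% v/v final, 250 ppm TREM 014 in purified water.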

[11] = test system: Pythium aphanadermatum; assay: Example J cucumber damping off; format: in vivo; conditions: Pythium, 336 h; 5 kg/ha; read-out: disease control rating, Ex. J
How it was run: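 This cucumber damping-off test used soil and seeds infested with a sand–cereal preparation carrying mycelium of Pythium aphanadermatum. Incubation took place in a growth chamber held at 30° C. for 14 days. Afterwards, the extent of disease was scored as a disease control rating.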

[12] = test system: Rhizoctonia solani; assay: Example K cotton blight; format: in vivo; conditions: 336 h, 5 kg/ha, read-out: disease control rating, Ex. K
Protocol: […] Seeds and soil were then inoculated with a mixture of sand, cereal and mycelium of the fungus Rhizoctonia solani, causal agent of cotton blight, and incubated in a growth chamber at 30° C. for 14 days. Disease ratings were then made.

[13] = test system: Fusarium oxysporum f. sp. cucumerinum; assay: Example L cucumber wilt; format: in vivo; conditions: 336 h, 5 kg/ha, read-out: disease control rating, Ex. L
Protocol: […] Seeds and soil were then inoculated with a mixture of sand, cereal and mycelium of the fungus Fusarium oxysporum f. sp. cucumerinum, causal agent of cucumber wilt, and incubated in a growth chamber at 30° C. for 14 days. Disease ratings were then made.

[14] = test system: Sclerotium rolfsii; assay: Example M southern blight; format: in vivo; conditions: Agroathelia rolfsii, 336 h; 5 kg/ha; read-out: disease control rating, Ex. M
Protocol: […] Seeds and soil were then inoculated with a mixture of sand, cereal and mycelium of the fungus Sclerotium rolfsii, causal agent of sourthern blight, and incubated in a growth chamber at 30° C. for 14 days. Disease ratings were then made.

[15] = test system: Candida albicans ATCC 11651; assay: In vitro antifungal MIC, microtiter broth dilution; conditions: for MIC: Candida albicans, ATCC11651, 24 h, read-out: MIC values, C. albicans, 30°, 24 hours
[16] = test system: Aspergillus fumigatus ATCC 28214; assay: In vitro antifungal MIC, microtiter broth dilution; conditions: for MIC: Aspergillus fumigatus, ATCC28214, 24 h, read-out: MIC values, A. fumigatus, 30°, 24 hours
Protocol: In vitro activity (Table 5) is expressed in terms of the minimal inhibitory concentration (MIC) of the test compound which inhibits the growth of yeasts and fungi.
The target organisms, Candida albicans ATCC 11651 and Aspergillus fumigatus ATCC 28214 are standardized, [V. Bezjak, J. Clinical Micro., 21 509-512 (1984)], to a concentration of 10^7 organisms/ml and maintained at -70° until use. Test compounds are solubilized in dimethyl sulfoxide (DMSO) and diluted in Eagle's Minimum Essential Medium (EMEM) broth to achieve a final concentration of 200 μg/ml. Stock solutions of standard antifungal agents are stored at -70° and diluted in EMEM as required.
The in vitro assay utilizes a microtiter broth dilution technique [L. Polonelli and G. Morace, Mycopathologia, 86, 21-28 (1984)] and C. […] The appropriate wells are inoculated with the required organism (C. albicans at 1×10^4 organisms/ml and A. fumigatus at 5×10^5 organisms/ml) and the assay incubated at 30° for 24 hours.

SMILES	responders at 150 mg/kg ([1]; ATCC11651, 168 h, day 7) [%]	pest or weed control at 100 ppm [2] [%]	pest or weed control at 100 ppm [3] [%]	pest or weed control at 100 ppm [5] [%]	pest or weed control at 100 ppm [8] [%]	pest or weed control at 100 ppm [10] [%]	pest or weed control at 5000 g/ha [11] [%]	pest or weed control at 5000 g/ha [12] [%]	pest or weed control at 5000 g/ha [13] [%]	pest or weed control at 5000 g/ha [14] [%]	responders at 150 mg/kg ([1]; ATCC11651, 336 h, day 14) [%]	pest or weed control at 100 ppm ([4]; 100 PPM) [%]	pest or weed control at 100 ppm [6] [%]	pest or weed control at 100 ppm ([7]; 100 PPM) [%]	pest or weed control at 100 ppm [9] [%]	MIC [15] [µg/mL]	MIC [16] [µg/mL]	responders at 150 mg/kg ([1]; ATCC11651, 504 h, day 21) [%]	other results
C=C(c1ccc(F)cc1)C(O)(Cn1cncn1)c1ccc(F)cc1 (single isomer, unassigned) [Example 1277]	100	9	65	0	39	25	0	0	0	0	–	–	–	–	–	–	–	–	% Survival ([1]; day 14): 100%; % Survival ([1]; day 21): 90%; disease control rating, Ex. C ([4]; 100 PPM): 0%; disease control rating, Ex. E ([6]; 100 PPM): 0%; disease control rating, Ex. F ([7]; 100 PPM): 0%; disease control rating, Ex. H ([9]; 100 PPM): 0%; MIC values, C. albicans ([15]; 30°, 24 hours): 0.03 µg/mL (≈ 0.0916 µM); MIC values, A. fumigatus ([16]; 30°, 24 hours): 6.3 µg/mL (≈ 19.2 µM)
C=C(c1ccc(Cl)cc1)C(O)(Cn1cncn1)c1ccc(F)cc1F (stereo not shown) [Example 28, 2-(2,4-Difluorophenyl)-3-(4-chlorophenyl)-1-(1H-1,2,4-triazol-1-yl)-3-buten-2-ol]	100	89	100	98	100	6	0	0	0	0	90	88	81	100	0	0.03 (≈ 0.0829 µM)	1.6 (≈ 4.42 µM)	–	–
C=C(c1ccc(F)cc1)C(O)(Cn1cncn1)c1ccc(Cl)c(Cl)c1 (stereo not shown) [Example 651, 2-(3,4-Dichlorophenyl)-3-(4-fluorophenyl)-1-(1H-1,2,4-triazol-1-yl)-3-buten-2-ol]	100	–	–	–	–	46	0	0	0	0	50	42	0	62	0	0.8 (≈ 2.12 µM)	100 (≈ 264 µM)	20	pest or weed control at 20 ppm [2]: 67%; pest or weed control at 20 ppm [3]: 0%; pest or weed control at 20 ppm [4]: 7%; pest or weed control at 20 ppm [5]: 67%; pest or weed control at 20 ppm [6]: 0%; pest or weed control at 20 ppm [7]: 0%; pest or weed control at 20 ppm [8]: 100%
C=C(c1ccc(Cl)cc1)C(O)(Cn1cncn1)c1ccc(Cl)cc1 (stereo not shown) [Example 27]	100	62	100	98	100	84	0	0	0	0	100	88	95	100	24	≤ 0.4	12.5 (≈ 34.7 µM)	100	–
C=C(c1cccc(Cl)c1)C(O)(Cn1cncn1)c1ccc(Cl)c(Cl)c1 (stereo not shown) [Example 905]	80	–	–	–	–	87	0	0	0	0	50	19	0	37	0	0.04 (≈ 0.101 µM)	100 (≈ 253 µM)	20	pest or weed control at 20 ppm [2]: 7%; pest or weed control at 20 ppm [3]: 0%; pest or weed control at 20 ppm [4]: 15%; pest or weed control at 20 ppm [5]: 47%; pest or weed control at 20 ppm [6]: 0%; pest or weed control at 20 ppm [7]: 0%; pest or weed control at 20 ppm [8]: 16%
C=C(c1ccc(F)cc1)C(O)(Cn1cncn1)c1ccc(-c2ccccc2)cc1 (stereo not shown) [Example 657]	0	62	100	98	100	37	0	0	0	0	0	81	49	97	24	0.4 (≈ 1.04 µM)	100 (≈ 259 µM)	0	–
C=C(c1cccc(Cl)c1)C(O)(Cn1cncn1)c1ccc(Cl)cc1Cl (stereo not shown) [Example 40, 2-(2,4-Dichlorophenyl)-3-(3-chlorophenyl)-1-(1H-1,2,4-triazol-1-yl)-3-buten-2-ol]	100	19	100	91	96	0	0	0	0	0	100	80	7	61	0	0.4 (≈ 1.01 µM)	3.2 (≈ 8.11 µM)	–	–
